Measurements published in US10533034B2, “Human iNKT cell activation using glycolipids” (ACADEMIA SINICA, priority 2014, dated 2020).

What was measured:
[1] = test system: iNKT TCR of DN3A4-1.2 Vα14+ iNKT hybridoma cells; test: Binding avidity of mCD1d-loaded glycolipids to Vα14+ iNKT cells (ternary interaction); set-up: species or system mouse; settings: complexed with mCD1d; Scatchard transformation; flow cytometry; read-out: KD of ternary complex, mCD1d-glycolipid toward iNKT TCR
Description: (3A) DN3A4-1.2 Vα14+ iNKT hybridoma cells and (3B) 7DW8-5-expanded Vα24^+ iNKT cells were incubated with various concentrations of the indicated dimeric mCD d-glycolipid and hCD1d-glycolipid complexes for 30 min at 4° C., respectively. The level of bound complexes at the indicated concentration was detected by anti-mIgG1 secondary antibody and analyzed by flow cytometry. The relationship between the binding percentage and the concentration of CD1ddi-glycolipids complex was plotted in mice (3A) and humans (3B). KD values in mice (3C) and humans (3D) were calculated from Scatchard transformation of the plot (3A) and 3B), respectively. Assay was performed in duplicates.
Briefly, murine CD1d:Ig dimer (BD Biosciences PharMingen, San Diego, Calif.) was loaded with glycolipids at a molar ratio of 1:10 or vehicle for overnight at 37° C. Murine 1.2 Vα14+ iNKT cells were incubated with various doses of dimer-glycolipid complex in buffer containing azide (0.05%) for 30 min at 4° C. These cells were then stained with anti-mouse IgG1-PE mAb (A85-1) for another 30 min at 4° C., followed by washing, fixation with 4% paraformaldehyde (PFA), and the bound mCD1d dimer complexes were detected by flow cytometry. The binding curve and linear fit of the Scatchard transformation were plotted by Graphpad Prism software.
(§1) Next, we measured the ternary interaction between CD1d-glcolipid complex and the iNKT TCR in mice and humans. Different concentrations of mCD1d^di-glycolipid and hCD1d^di-glycolipid complexes were incubated with fixed amounts of DN3A4-1.2 murine iNKT hybridoma cells and human Vα24+/Vβ11^+ iNKT cells, respectively. The level of bound complexes at the indicated concentration was detected by anti-mIgG1 secondary antibody and analyzed by flow cytometry (FIGS. 3A and 3B). The KD of the ternary complex was calculated from the Scatchard transformation of the plots in FIGS. 3A and 3B using GraphPad Prism software. […] This was consistent with the observation that higher percentages of C1-pulsed splenocytes were stained by the mCD1d-7DW8-5 complex (36.2±5.0%) than mCD1d-7DW8-5-Glc complex (17.1±0.8%) (FIG. 11).

Vα24+/Vβ11+ iNKT TCR = Vα24+/Vβ11+ iNKT TCR (Homo sapiens, UniProt A0A075B6N4+A0A0B4J240+P15813); test: Binding avidity of hCD1d-loaded glycolipids with Vα24+ iNKT cells (ternary interaction); settings: in complex with hCD1d; Scatchard transformation; read-out: KD of ternary complex, hCD1d-glycolipid toward Vα24+/Vβ11+ iNKT TCR
Chain of Vα24+/Vβ11+ iNKT TCR (P01848 whole entry): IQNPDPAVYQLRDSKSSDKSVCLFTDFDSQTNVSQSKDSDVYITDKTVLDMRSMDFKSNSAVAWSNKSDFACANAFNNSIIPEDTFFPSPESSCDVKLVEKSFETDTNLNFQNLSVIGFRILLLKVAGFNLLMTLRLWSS
Chain of Vα24+/Vβ11+ iNKT TCR (A0A075B6N4 22-114): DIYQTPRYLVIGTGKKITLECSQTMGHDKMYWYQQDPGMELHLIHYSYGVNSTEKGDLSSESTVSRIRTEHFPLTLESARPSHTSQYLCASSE
Chain of Vα24+/Vβ11+ iNKT TCR (P61769 21-119, further chain): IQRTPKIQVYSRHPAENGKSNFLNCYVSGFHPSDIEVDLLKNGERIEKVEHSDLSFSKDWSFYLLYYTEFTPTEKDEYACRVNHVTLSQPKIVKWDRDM
Chain of Vα24+/Vβ11+ iNKT TCR (A0A0B4J240 22-114): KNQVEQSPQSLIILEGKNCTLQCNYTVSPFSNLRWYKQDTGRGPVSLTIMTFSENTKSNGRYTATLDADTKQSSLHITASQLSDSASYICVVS
Chain of Vα24+/Vβ11+ iNKT TCR (P15813 20-301): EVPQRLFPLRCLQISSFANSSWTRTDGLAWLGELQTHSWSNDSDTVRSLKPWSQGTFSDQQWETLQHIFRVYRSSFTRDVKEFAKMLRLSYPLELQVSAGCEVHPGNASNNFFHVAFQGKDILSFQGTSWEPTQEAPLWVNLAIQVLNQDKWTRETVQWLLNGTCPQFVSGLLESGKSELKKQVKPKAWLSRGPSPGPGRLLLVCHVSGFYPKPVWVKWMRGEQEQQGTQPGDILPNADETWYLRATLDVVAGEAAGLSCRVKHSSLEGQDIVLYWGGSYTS
Description: as §1, with “(3A) DN3A4-1.2 Vα14+ iNKT hybridoma cells and (3B) 7DW8-5-expanded Vα24^+ iNKT cells were incubated with various concentrations of the indicated dimeric mCD d-glycolipid and hCD1d-glycolipid complexes for 30 min at 4° C., respectively. The level of bound complexes at the indicated concentration was detected by anti-mIgG1 secondary antibody and analyzed by flow cytometry. The relationship between the binding percentage and the concentration of CD1ddi-glycolipids complex was plotted in mice (3A) and humans (3B). KD values in mice (3C) and humans (3D) were calculated from Scatchard transformation of the plot (3A) and 3B), respectively. Assay was performed in duplicates. Binding avidity of human CD1d-glycolipid complexes to Vα24^+ iNKT cells expanded by 7DW8-5 at 100 ng/ml was determined as described previously.^19 Next,” for “Next,”

B6 wild type mice = test: Murine serum cytokine/chemokine secretion after i.v. glycolipid, wild type mice; type: in vivo, mouse; settings: 1 μg/mouse i.v.; 2 and 18 hr
Description: B6 wild type mice were i.v. injected with 7DW8-5-Glc at 0.1 or 1 μg/mouse. Sera collected at 2 h and 18 h post-injection were analyzed for chemokine secretions such as IP-10 (6A), KC (6B), MCP-1 (6C), and MIP-1α (6D). These chemokines peaked at 2 hr post-injection.
B6 wild type and Jα18 knockout mice were i.v. injected with the indicated glycolipids (1 μg/mouse) or vehicle. Sera collected at 2 h and 18 h post-injection were analyzed for cytokines like IL-2 (7A), IL-6 (7B), GM-CSF (7C) and TNFα (7D) as well as chemokines such as IP-10 (7E), MIG (7F), KC (7G) and MCP-1 (7H). Only MIG peaked at 18 hr post-injection, while the others peaked at 2 hr post-injection.
All the glycolipids were dissolved in 100% DMSO at a concentration of 1-2 mg/ml. For in vivo experiments, all compounds were diluted to 10 μg/ml in saline just before injection of 100 μl diluted glycolipid or 100 μl 1% DMSO into mice. Pathogen-free C57BL/6 female mice aged 6-12 weeks were obtained from the National Laboratory Animal Center (Taipei, Taiwan). Jα18 knockout (KO) B6 mice were the gifts from Dr. Masaru Taniguchi (RIKEN Research Center for Allergy and Immunology, Yokohama, Japan). All the mice were maintained in pathogen free vivarium of Institute of Cellular and Organismic Biology, Academia Sinica (Taipei, Taiwan).
B6 WT or Jα18 KO mice were intravenously injected with vehicle or glycolipids at 0.1 or 1 μg/mouse. Serum was collected at 2 and 18 h after injection for measurement of cytokines/chemokines by Beadlyte® Mouse Cytokine kit (Millipore, N.Y.) and read by a Luminex® 200™ system (Luminex, Austin, Tex.).
Previously, 0.1 μg/mouse of 7DW8-5 was sufficient for immune stimulation,^19 but higher dosage (1 μg/mouse) was required for the glucose analog 7DW8-5-Glc to induce immune responses (FIG. 6). Thus, the biological activities of newly synthesized glycolipids were tested in B6 mice 2 and 18 hr after i.v. injection of glycolipids at 1 μg/mouse. […] As compared to GSLs with αGlc, GSLs with αGal induced higher levels of cytokines and chemokines, including IFN-γ, IL-2, IL-4, IL-6, GM-CSF, TNFα and IP-10.

B6 WT mice splenocytes = test: FACS analyses of WT mouse immune cells after glycolipid stimulation; type: in vivo; settings: 1 μg/mouse; 72 hr
Description: B6 WT mice treated with the indicated glycolipid (1 μg/mouse) or vehicle (1% DMSO in PBS) were sacrificed at 72 hr post-injection and their splenocytes were subjected to FACS analysis. (8A) The total splenocytes, (8B) total CD11Chi cells, (8C) CD11Chi/CD80+ cells, (8D) CD11Chi/CD86+ cells, (8E) CD4^+ T cells and (8F) CD8^+ T cells.
B6 WT or Jα18 KO mice treated with specific glycolipid (1 μg/mouse) or vehicle (1% DMSO in PBS) were sacrificed at 72 hr post-injection and their spleens were harvested. After pressing spleens through 70 um strainer and lysis of erythrocytes, the nucleated cells were resuspended in PBS buffer containing azide (0.05%) and stained with antibodies recognizing the indicated cell surface antigens for 30 min at 4° C. After washing, the splenocytes were subjected to FACS analysis. The antibodies against CD3, CD4, CD8α, CD11c, CD80, and CD86 were obtained from BD Bioscience-Pharmingen.
Next, we analyzed the expansion/activation of immune cells in WT mice 3 days after glycolipid stimulation. The numbers of total T cells, CD4^+ T and CD8^+ T cells were higher in mice treated by GSLs with αGal head than those treated by GSLs with αGlc (FIGS. 2C, 8E and 8F). This was in line with the observation that more cytokines/chemokines were induced by GSLs with αGal than GSLs with αGlc in mice (FIGS. 2A, 2B and 7). […] As compared to 7DW8-5-Glc, C1-Glc not only expanded ˜1.3 fold more splenocytes and DCs (FIGS. 8A and 8B) but also activated ˜3.5 fold more CD80^+ DCs as well as ˜3 fold more CD86^+ DCs (FIGS. 8C and 8D). The increased expansion/activation of DCs may contribute to the stronger immunogenicity triggered by C1-Glc and C34-Glc as compared to 7DW8-5-Glc in vivo.

[2] = test system: human Vα24-restricted NKT cells; test: Cytokine production of human iNKT cells co-cultured with autologous DCs and glycolipids (Luminex); type: cell-based; settings: 1 μg/mL; 72 hrs
Description: Human Vα24-restricted NKT cells were isolated from PBMC by magnetic beads, and iNKT cells were cultured with 50 μ/mL recombinant human IL-2. Two days later, iNKT cells were co-cultured with autologous monocyte-derived DCs and different glycolipids at 1 μg/mL in 96 wells. At 72 hrs, the supernatant were collected to determine the cytokines profiles by Luminex. (A) Secretion of IFN-γ and IL-4 was similar among all glycolipids. […] One-way ANOVA was used for statistic analysis. ***P<0.001 compared with C1. #, P<0.05 compared to C34.
To compare the capacities of C1, C34, K691, K705 and K706 in activating human iNKT cells, human Vα24-restricted NKT cells were isolated from PBMC by magnetic beads, and incubated with recombinant human IL-2 ([…]). Two days later, iNKT cells were co-cultured with autologous monocyte-derived DCs loaded with different glycolipids (1 μg/mL), including C1, C34, K691, K705 and K706, in 96 wells for three days. The supernatants were collected to determine cytokines/chemokines by Luminex assay. […] (Statistical evaluation was performed using one-way ANOVA. *P<0.05 compared with C1. #, P=0.002 compared with C34, using Student's T test).

SMILES: CCCCCCCCCCCCCCCCCCCCCCCCCC(=O)N[C@@H](CO[C@H]1O[C@H](CO)[C@H](O)[C@H](O)[C@H]1O)[C@H](O)[C@H](O)CCCCCCCCCCCCCC [Compound C1, α-Galactosyl ceramide, reference compound]
- Kd [1]: 1.24 ± 0.003 nM
- Kd (Vα24+/Vβ11+ iNKT TCR): 16.4 ± 4.2 nM

SMILES: CCC(=O)N[C@@H](CO[C@H]1OC(CO)[C@@H](O)C(O)C1O)[C@H](O)[C@H](O)CC (some centres unmarked) [Compound C1-Glc]
- Kd [1]: 5.14 ± 0.11 nM
- Kd (Vα24+/Vβ11+ iNKT TCR): 8.55 ± 0.617 nM
- induction of serum cytokines/chemokines (B6 wild type mice): triggered both cytokines and chemokines
- CD80+ DCs activated, fold more than 7DW8-5-Glc (B6 WT mice splenocytes): ~3.5 fold
- CD86+ DCs activated, fold more than 7DW8-5-Glc (B6 WT mice splenocytes): ~3 fold
- DCs expanded, fold more than 7DW8-5-Glc (B6 WT mice splenocytes): ~1.3 fold
- splenocytes expanded, fold more than 7DW8-5-Glc (B6 WT mice splenocytes): ~1.3 fold

SMILES: CC[C@@H](O)[C@@H](O)[C@H](CO[C@H]1OC(CO)[C@@H](O)C(O)C1O)NC(=O)Cc1ccc(Oc2ccc(F)cc2)cc1 (some centres unmarked) [Compound C34-Glc]
- Kd [1]: 7.96 ± 1.27 nM
- Kd (Vα24+/Vβ11+ iNKT TCR): 0.378 ± 0.019 nM
- induction of serum cytokines/chemokines (B6 wild type mice): triggered both cytokines and chemokines
- CD80+ DCs activated, fold more than 7DW8-5-Glc (B6 WT mice splenocytes): ~2 fold
- CD86+ DCs activated, fold more than 7DW8-5-Glc (B6 WT mice splenocytes): ~2 fold

SMILES: CCCCCCCCCCCCCCC(O)C(O)C(COC1OC(CO)C(O)C(O)C1O)NC(=O)CCCCCCCCCCc1ccc(Oc2ccc(F)cc2)cc1 (centres unmarked) [Compound C34]
- Kd [1]: 0.735 ± 0.01 nM
- Kd (Vα24+/Vβ11+ iNKT TCR): 0.498 ± 0.005 nM
- Ratio of IFN-γ/IL-4 compared with C1 [2]: significantly higher
